Data set [1] can be described thus: Plasma protein binding, mouse plasma. In kind it is in vitro ADME. Particulars: CD-1, pH 7.4, read-out: % PPB (converted). As to the method:
Plasma protein binding (PPB) for compounds determination for compound (±)-44 in PBS (pH 7.4) was conducted by Eurofins using equilibrium dialysis of plasma with HPLC-UV/Vis detection.
The peak areas of the test compound in the buffer and test samples were used to calculate percent binding and recovery according to the following formulas:
• Areap=Peak area of analyte in protein matrix • Areab=Peak area of analyte in buffer • Areac=Peak area of analyte in control sample

The next data set concerns the target RBP4 (Homo sapiens (Human), UniProt P02753). Kind of data set: RBP4 SPA binding assay (displacement of 3H-retinol). As to conditions: read-out: RBP4 SPA IC50. (In general: In a radioligand displacement assay an active substance lowers the binding of a labelled ligand.)
Data set [2] can be described thus: Metabolic stability and clearance in cynomolgus monkey liver microsomes. The class given is in vitro ADME. Particulars: 30 minute incubation. As to the method: (§1) The results of metabolic stability determinations for novel compounds and testosterone (positive control) were conducted in the presence of human, rat, mouse, and monkey liver microsomes. Values shown are percent of parent remaining after a 30 minute incubation. All measurements were done in duplicate. Assay results for testosterone were within an acceptable range.
(§2) Mixed-gender human liver microsomes (Lot #1710084), male Sprague-Dawley rat liver microsomes (Lot #1610290), male CD-1 mouse liver microsomes (Lot #1710069), and male Cynomolgous liver microsomes (Lot #1510193) were purchased from XenoTech. The reaction mixture, minus NADPH, was prepared as described below. The test article was added into the reaction mixture at a final concentration of 1 μM. The control compound, testosterone, was run simultaneously with the test article in a separate reaction. An aliquot of the reaction mixture (without cofactor) was equilibrated in a shaking water bath at 37° C. for 3 minutes. The reaction was initiated by the addition of cofactor, and the mixture was incubated in a shaking water bath at 37° C. Aliquots (100 μL) were withdrawn at 0, 10, 20, 30, and 60. […] Half-lives were calculated using GraphPad software, fitting to a single-phase exponential decay equation.
On the technique in general: Liver microsomes are vesicles of endoplasmic reticulum, rich in cytochrome P450 enzymes.

The nature of another data set: Kinetic solubility assay. The class given is physicochemical. Particulars: PBS (pH 7.4). The protocol: Kinetic aqueous solubility determination for compound (±)-44 in PBS (pH 7.4) was conducted by Eurofins using UV detection (230 nm). […] In addition, chromatographic purity (%) was defined as the peak area of the principal peak relative to the total integrated peak area in the HPLC chromatogram of the calibration standard. A chromatogram of the calibration standard of each test compound, along with a UV/VIS spectrum with labeled absorbance maxima, was generated.

The test system of data set [3] is Abca4−/−/Rdh8−/− mice. Kind of data set: A2E accumulation in eyes of Abca4−/−/Rdh8−/− mice. Particulars: 25 mg/kg daily in chow, 10 weeks, eyecups, HPLC. In kind it is in vivo, mouse. The text has this: FIG. 10. Effect of the long-term oral (±)-44 administration on the level of the lipofuscin fluorophore A2E in eyes of the Abca4^−/−/Rdh8^−/− mice. Bisretinoids were extracted from the eyecups of vehicle-treated wild type mice (circles), vehicle-treated Abca4^−/−/Rdh8^−/− knockout mice (squares), and (±)-44-treated Abca4^−/−/Rdh8^−/− mice (triangles) after 10 weeks of dosing and analyzed by HPLC. A significant 77% reduction in A2E concentration was detected in (±)-44-treated Abca4^−/−/Rdh8^−/− mice compared with vehicle-treated double-knockout controls; one-way ANOVA with Holm-Sidak post hoc test, p<0.0001 (****).
(±)-44 was formulated into a Picolab 5053 chow to ensure a daily dosing of 25 mg/kg of (±)-44. Long-term 10-week dosing of the compound formulated into a chow was conducted in Abca4^−/−/Rdh8^−/− mice. The age-matched control group of wild-type C57BL/6J mice was kept on a standard Picolab 5053 chow. The age-matched reference group of mice was used for defining the basal level of A2E in mice in the absence of the Abca4 and Rdh8 ablation. […] Following the 10 weeks of dosing, the eyecups of treated and untreated Abca4^−/−/Rdh8^−/− mice as well as the eyecups of the reference wild type mice were collected for the quantitative A2E analysis.

A further data set deals with PPARγ (Homo sapiens (Human), UniProt P37231). Nature of the data set: PPARγ agonist activity.
The nature of data set [4]: Metabolic stability and clearance in human liver microsomes. The class given is in vitro ADME. The protocol:
as §1, §2

Data set [5] concerns Abca4−/−/Rdh8−/− mice. Nature of the data set: Photoreceptor preservation (ONL thickness) in Abca4−/−/Rdh8−/− mice. As to conditions: 25 mg/kg daily in chow, 10 weeks. In kind it is in vivo, mouse. The protocol: FIG. 11. Photoreceptor protection in (±)-44-treated Rdh8^−/−Abca4^−/− mice. […] Data analyzed by two-way ANOVA with Sidak post hoc test.
(±)-44 was formulated into a Picolab 5053 chow to ensure a daily dosing of 25 mg/kg of (±)-44. Long-term 10-week dosing of the compound formulated into a chow was conducted in Abca4^−/−/Rdh8-mice. The age-matched control group of wild-type C57BL/6J mice was kept on a standard Picolab 5053 chow. After 10 weeks of dosing, whole eyes were collected and fixed in the 2% glutaraldehyde/4% paraformaldehyde. Eyes were embedded in paraffin and sectioned at a thickness of 8 μm. Sections were counterstained using hematoxylin and eosin (H&E). Morphologic observations and light microscopy was performed.

SMILES strings stand for the structures. In brackets after ≈: the same amount, converted by molar mass. Entries after “also recorded” stand apart in the source; their conditions may differ. Some results are limits rather than exact numbers.

Sequence of PPARγ (P37231 whole entry, species assumed): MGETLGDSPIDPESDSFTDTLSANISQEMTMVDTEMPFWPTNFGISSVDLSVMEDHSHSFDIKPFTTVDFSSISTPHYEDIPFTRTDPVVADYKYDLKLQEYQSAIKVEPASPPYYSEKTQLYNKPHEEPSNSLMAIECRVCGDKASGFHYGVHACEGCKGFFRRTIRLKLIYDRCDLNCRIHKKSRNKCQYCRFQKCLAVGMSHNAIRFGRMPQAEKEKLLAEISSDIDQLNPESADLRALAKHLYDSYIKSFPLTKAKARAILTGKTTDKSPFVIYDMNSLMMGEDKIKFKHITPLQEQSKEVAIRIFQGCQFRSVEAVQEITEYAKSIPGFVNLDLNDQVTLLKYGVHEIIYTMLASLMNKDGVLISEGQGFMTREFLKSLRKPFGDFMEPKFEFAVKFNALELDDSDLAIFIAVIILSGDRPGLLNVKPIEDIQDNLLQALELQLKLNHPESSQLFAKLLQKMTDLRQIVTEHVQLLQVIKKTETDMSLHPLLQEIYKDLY

As for `Cc1cc(C(=O)O)nc(N2CCC(COc3ccccc3C(F)(F)F)C2)n1` (racemic) [Compound (±)-44, (±)-6-Methyl-2-(3-((2-(trifluoromethyl)phenoxy)methyl)pyrrolidin-1-yl)pyrimidine-4-carboxylic Acid], the fraction unbound in data set [1] was 0.04. The concentration for half-maximal inhibition (IC50) (usually the concentration at which inhibition is half-maximal) at RBP4 was 80 nM; at PPARγ, above 100000 nM. For the same molecule, in data set [2], the “Liver Microsomal Stability (% remaining at 30 min), cyno LM” value was 103%. Also, in the data set “Kinetic solubility assay”, the kinetic solubility (as a rule, solubility judged after dilution from a stock solution rather than from solid) is on record as 187.4 µM (≈ 71.5 µg/mL). Also, in the data set on Abca4−/−/Rdh8−/− mice [3], the “reduction in A2E concentration vs vehicle-treated Abca4−/−/Rdh8−/− mice” value is 77%. For the same molecule, the PPARγ agonist activity result on PPARγ is listed as “devoid of PPARγ agonist activity”. Besides, the “Liver Microsomal Stability (% remaining at 30 min), HLM” value in data set [4] (30 minute incubation) was found to be 105%. Further, the microsomal CLint (as a rule, the rate of metabolic loss divided by the concentration) at 1 μM in data set [4] (both sexes, human liver microsomes, read-out: Microsomal CLint, H) is below 0.0231 µL/min/mg. Further, the “photoreceptor protection (ONL thickness)” value in the data set with Abca4−/−/Rdh8−/− mice [5] was “partially reversed; also recorded: Photoreceptor protection is evident at multiple points in the superior retina”.

The values above are taken from patent US20230348415A1, “BISPECIFIC ANTAGONISTS OF RETINOL-BINDING PROTEIN 4 THAT STABILIZE TRANSTHYRETIN TETRAMERS, THEIR PREPARATION, AND USE IN THE TREATMENT OF COMMON AGE-RELATED COMORBIDITIES” (The Trustees of Columbia University in the City of New York, priority 2020, published 2023).
